The values that follow come from PubChem BioAssay AID849 (SRMLSC, 2007).

The structures appear in SMILES notation. Activity calls are given as the source filed them. No rule for the calls is given here.

This assay concerns Saccharomyces cerevisiae lifespan shortening, growth inhibition. In words: Saccharomyces cerevisiae growth inhibition potency – dose response (AID 849).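 Also: yeast growth read as optical density after two days at 30 degrees C.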
In the case of `O=[N+]([O-])c1ccc(N/N=C2/CCCCC2c2ccccn2)cc1` (centres undefined), the IC50 was 5.86 µM.

On to `O=c1cnn([C@@H]2O[C@H](CO)[C@@H](O)[C@H]2O)c(=O)[nH]1`, for which the IC50 was 13.7 µM.

Consider `COc1ccc(C(=O)NC(=S)NNC(=O)c2cnccn2)cc1`, for which the IC50 is 16.3 µM.

Consider `CCN1/C(=C/C=C/C=C/c2sc3ccccc3[n+]2CC)Sc2ccccc21`, for which the IC50 was 21.3 µM.

With `Cc1ccc(C)c(/C=C/C(=O)c2ccccc(=O)c2O)c1`, the IC50 is 6.4 µM.

With `Cc1ccc(N/N=C/c2c(O)cc(C)oc2=O)cc1`, the IC50 was 24.3 µM.

On to `CCOC(=O)c1cc([N+](=O)[O-])c([N+](=O)[O-])cc1NC(C)=O`, for which the 50% inhibitory concentration (IC50) was less than 0.098 µM.

Turning to `COc1ccc2c(C)nc(Nc3nc(C)c(C)c(=O)[nH]3)nc2c1`, the IC50 is 15 µM.

Take `O=c1c2ccccc2nc2c3ccccc3c3nncn3n12`: the IC50 was 49.9 µM.

Turning to `Cc1cc(O)c(/C=N/Nc2ccccc2Cl)c(=O)o1`, the IC50 is 29.7 µM.

`CC1(C)C(C=C(Cl)Cl)C1C(=O)Nc1ccc([N+](=O)[O-])cc1` (centres undefined): the IC50 was 51.3 µM.

With `COc1ccc2c(c1)c1nnc(SC)nc1n2C`, the half-inhibitory concentration (IC50) is 44.1 µM.

For the compound `CCOc1ccccc1C1CC(c2ccc(Br)cc2)Nc2nc(N)nn21` (centres undefined), the IC50 was > 100 µM (inactive).

Regarding `Clc1ccc2[nH]c3c(c2c1)CCc1cn[nH]c1-3`, the half-inhibitory concentration (IC50) is 12.5 µM.

Regarding `Cn1c(-c2ccco2)nc2cc3ccccc3cc21`, the IC50 was 39.7 µM.

Turning to `O=C(Cc1cccs1)NNC(=S)NC(=O)c1ccccc1`, the IC50 was > 100 µM (inactive).

For `O=S(=O)(/N=C(\Sc1ccc(Cl)cc1)c1ccccc1)c1ccccc1`, the 50% inhibitory concentration (IC50) was 49.2 µM.

For the compound `Oc1cccc2ccc(/C=C/c3cccs3)nc12`, the IC50 is 37.5 µM.

For the compound `CCCOC(=O)c1ccc(Oc2cn[nH]c2-c2ccc(OC)cc2O)cc1`, the IC50 is 26 µM.

For the compound `O=C(O)c1cc(-c2ccc(/C=N/Nc3ccc(Cl)cc3)o2)ccc1Cl`, the IC50 is 11.7 µM.

As for `Cc1noc2ncnc(Sc3ccccc3Cl)c12`, the concentration for half-maximal inhibition (IC50) is 26.6 µM.

As to `Cc1ccc(C)c(-n2nnnc2SCC(=O)Nc2cccc(-c3nnc4n3CCCCC4)c2)c1`, the IC50 was > 100 µM (inactive).

In the case of `Cc1ccc(Oc2nc(CN3CCOCC3)nc3sc4c(c23)CCC(C)C4)cc1C` (centres undefined), the IC50 is 26.1 µM.

As to `Oc1cc(-c2ccccc2)c2ccccc2c1`, the IC50 is 26 µM.

For `O=C(/C(=N/N=C/c1ccc(O)c(O)c1O)c1ccccc1)c1ccccc1`, the IC50 was 25.8 µM.

For `Cn1c(N2CCOCC2)c(/C=N/OC(=O)c2ccc(F)cc2)c2ccccc21`, the IC50 is 42.2 µM.

Consider `Oc1c(CN2CCc3ccccc3C2)cc(Cl)c2cccnc12`, for which the IC50 was 16 µM.

For the compound `O=C(O)CSc1nc(-c2ccc(Cl)cc2)nc2c1oc1ccccc12`, the IC50 was 38 µM.

As to `COc1ccc(-n2c(Cc3cccn3C)nnc2SCC(=O)N2CCCC2)cc1`, the IC50 was > 100 µM (inactive).

Consider `Cc1nn2c(-c3ccncc3)nnc2c2ccccc12`, for which the IC50 was 6.35 µM.

Take `Cc1ccc(N/N=C/c2cccnc2)cc1`: the IC50 was 39.6 µM.

As to `Cc1ccc(COc2ccc(Br)cc2/C=N/O)cc1`, the IC50 is > 100 µM (inactive).

For the compound `O=C(CSc1cccc[n+]1[O-])c1cc2ccccc2o1`, the 50% inhibitory concentration (IC50) is 2.97 µM.

For the compound `Cn1c(C(=O)N2CCC(C(=O)N3CCN(Cc4ccc5c(c4)OCO5)CC3)CC2)cc2sccc21`, the IC50 is > 100 µM (inactive).

Regarding `O=C(OCn1ncc(Cl)c(Cl)c1=O)c1ccc(F)cc1`, the IC50 was > 100 µM (inactive).

Turning to `CCOc1cc(C2CC(=O)N3CN(C4CCCCC4)CSC3=C2C#N)ccc1O` (centres undefined), the IC50 is > 100 µM (inactive).

As to `Cc1cccc(OCCCCc2c(C)n[nH]c2C)c1C`, the IC50 is 38.1 µM.

In the case of `O=S(=O)(Cc1ccccc1)NCc1cccnc1`, the IC50 was > 100 µM (inactive).

Regarding `Cc1ccc(CNC(=O)CS(=O)Cc2nc(-c3cccs3)oc2C)cc1` (centres undefined), the IC50 is > 100 µM (inactive).

With `Cc1cc(C(=O)COC(=O)c2ccc[nH]c2=O)c(C)n1-c1ccccc1`, the IC50 is 21.3 µM.

`CCOC(=O)c1c(/N=C/c2cccc([N+](=O)[O-])c2O)sc(C)c1C`: the IC50 is 18.5 µM.

Regarding `c1ccc2nc3c(nc2c1)[nH]c1ccccc13`, the IC50 was 25 µM.

`CC1CCN(c2nc(/C=C/c3ccccc3)nc3ccccc23)CC1`: the IC50 was 24.7 µM.

Turning to `CCOC(=O)c1ccc(-n2[nH]c(-c3ccccc3)cc2=O)cc1`, the 50% inhibitory concentration (IC50) is 17.1 µM.

Consider `Nc1ccc(O)c2c1C(=O)c1ccccc1C2=O`, for which the IC50 was 28.1 µM.

`C=CCn1cnc2c(c1=O)c1nc3ccccc3nc1n2/N=C/c1cc(OC)c(OC)c(OC)c1`: the IC50 was 37.4 µM.

As to `Fc1ccc2nc3[nH]c4ccccc4c3nc2c1`, the IC50 is 39.9 µM.

Turning to `COc1cccc2sc(Nc3nc(-c4ccccn4)cs3)nc12`, the IC50 was 20.4 µM.

On to `CCOC(=O)C(=NCCCN(C)C)NNc1ccc(Br)cc1`, for which the IC50 is 11.1 µM.

On to `CCOc1cccc(-c2nnc3n2N=C(c2cc(OC)ccc2OC)CS3)c1`, for which the IC50 was > 100 µM (inactive).

Turning to `CCc1cccc(C)c1NC(=S)NCc1ccc2[nH]c(C)cc2c1`, the IC50 was 37.5 µM.

For the compound `CC12C(=O)N(c3cccc4cccnc34)C(=O)C1C1C=CC2C1` (centres undefined), the IC50 was > 100 µM (inactive).

For the compound `O=C(OCn1ncc(Cl)c(Cl)c1=O)c1ccccc1Cl`, the concentration for half-maximal inhibition (IC50) is 20.7 µM.

`CCCCS(=O)(=O)/C=C\C=C/S(=O)(=O)CCCC`: the IC50 is > 100 µM (inactive).

On to `COc1ccc(CN2CN(C(C)C)CSC2=S)cc1`, for which the IC50 is 35.3 µM.

`CCc1ccc2c(c1)C1(NN=C(c3ccc(C)cc3)S1)C(=O)N2` (centres undefined): the IC50 is 23.8 µM.

On to `N#Cc1ccccc1NC(=O)c1ccc2c(Cl)c3c(nc2c1)CCCC3`, for which the IC50 was > 100 µM (inactive).

Regarding `O=C(c1ccc(Cl)cc1)c1c[nH]c(C(=O)C(Cl)(Cl)Cl)c1`, the 50% inhibitory concentration (IC50) was 37.8 µM.

Regarding `c1ccc(Cc2nnc3sc(-c4ccco4)nn23)cc1`, the IC50 was > 100 µM (inactive).

For `O=[N+]([O-])c1ccc(O)c(/C=N/Nc2ccccn2)c1`, the IC50 is 31 µM.

For the compound `CC1=CC(=O)C=C(C)C1=NOS(=O)(=O)c1ccccc1`, the IC50 is > 100 µM (inactive).

Turning to `OC(CNCCc1ccc(C(F)(F)F)cc1)COc1ccc2ccccc2c1` (centres undefined), the IC50 is > 100 µM (inactive).

Take `O=C(O)c1cc2ccc3ccccc3c2oc1=O`: the IC50 is 20.6 µM.

With `Cc1c(N=Cc2cc(Br)cc(Br)c2O)cccc1C(=O)O`, the IC50 was 23.7 µM.

As to `O=C1c2ccccc2C(=O)N1Cc1ccco1`, the IC50 was > 100 µM (inactive).

For the compound `CCOC(=O)C(=NC(C)CC)NNc1ccc(Br)cc1` (centres undefined), the IC50 was 8.41 µM.

For `O=C(O)C1C2C=CC(O2)C1C(=O)NC1CCCc2ccccc21` (centres undefined), the IC50 is > 100 µM (inactive).

Turning to `Clc1cccc(CN2COc3c(cc(Cl)c4cccnc34)C2)c1`, the half-maximal inhibitory concentration (IC50) is 7.28 µM.

As for `COc1ccc(-c2cc3nc(C)cc(N4CC(C)CC(C)C4)n3n2)cc1` (centres undefined), the IC50 was 42.2 µM.

Take `Cn1c2ccccc2c(=O)n2c(=O)c3ccccc3cc12`: the IC50 was 52.5 µM.

Take `Cc1cc(N2CCN(c3cccc(C)c3C)CC2)nc(-c2ccccc2)n1`: the IC50 was 35.4 µM.

On to `Cc1ccccc1OCCCN1C(=O)C(=O)c2cccc(C)c21`, for which the IC50 was > 100 µM (inactive).

With `CCN1/C(=C/c2ccc3cccc(C)c3[n+]2CC)Sc2ccccc21`, the 50% inhibitory concentration (IC50) was 9.8 µM.

For `O=C(CC(=O)c1ccccc1O)c1ccc(F)cc1`, the IC50 is > 100 µM (inactive).

With `O=C1CCCC/C1=N\Nc1ccc(OCc2ccccc2)cc1`, the half-inhibitory concentration (IC50) was 13.3 µM.

Take `COc1cccc(C(=O)O/N=C(\N)Cc2ccc(Cl)cc2)c1`: the IC50 was 4.09 µM.

For the compound `COc1ccccc1OCC(=O)n1cc(C(=O)c2cc(Cl)cc(Cl)c2O)cn1`, the IC50 is 5.95 µM.

Take `Clc1ccccc1N/N=C/c1ccc2c(c1)OCO2`: the half-maximal inhibitory concentration (IC50) is 32.5 µM.

Consider `O=C(OCn1ncc(Br)c(Br)c1=O)c1ccc(F)cc1`, for which the IC50 was 6.92 µM.

`O=c1[nH]c(Nc2ccccc2)cc2ccccc12`: the IC50 was > 100 µM (inactive).

For `Clc1ccc(CSC(Cn2ccnc2)c2ccc(Cl)cc2Cl)cc1` (centres undefined), the half-inhibitory concentration (IC50) was 0.528 µM.

Turning to `CCCCCCCCCCCCCCCC(O)C(N)CO` (centres undefined), the IC50 is 33.4 µM.

On to `Cc1cc(C)c2c(N=NN3CCOCC3)[nH]nc2n1`, for which the IC50 was 19.9 µM.

Regarding `C=CCNC(=S)N/N=C(\C)c1ccccn1`, the IC50 is 17.6 µM.

`CC(=O)/C(=N\Nc1ccc(C)cc1)N1CCOCC1`: the IC50 is 11.1 µM.

On to `O=C1OCC(CO)(CO)N=C1NNc1ccc(Cl)c(Cl)c1`, for which the half-inhibitory concentration (IC50) is 2.89 µM.

In the case of `O=C1OCC(CO)(CO)N=C1NNc1ccccc1Cl`, the IC50 is 6.45 µM.

As to `Clc1cc2nc3ccccn3c2cc1Cl`, the 50% inhibitory concentration (IC50) was 51.5 µM.

For `O=C(O)c1ccc(N(c2ccccc2)c2ccccc2)cc1`, the IC50 was > 100 µM (inactive).

Take `Cc1cccc(C(=O)CC(=O)c2cc(Cl)ccc2O)c1`: the IC50 is 45.7 µM.

Regarding `COc1ccc(NCc2nc3ccccc3n2CCOc2ccc(C)cc2)cc1`, the IC50 was 31.2 µM.

As for `CCC(C)N1CC23C=CC(O2)C(C(=O)OC)C3C1=O` (centres undefined), the IC50 is > 100 µM (inactive).

Regarding `Cc1ccc(/C=C/C(=O)c2ccccc(=O)c2O)cc1C`, the IC50 was 5.31 µM.

As for `Cc1c(C(=O)O)cccc1-c1ccc(/C=N/Nc2ccc(Br)cc2)o1`, the IC50 is > 100 µM (inactive).

For `CC(C)Sc1nc(N)nc(-c2cccs2)c1C#N`, the IC50 is > 100 µM (inactive).

For `c1ccc(-n2c(-c3ccco3)nnc2-c2ccco2)cc1`, the IC50 was > 100 µM (inactive).

As to `CCOc1cc(/C=N/Nc2ccccc2Cl)ccc1OCC(=O)O`, the IC50 was 11.6 µM.

Take `CSC1=NSC2=NC(=O)/C(=C/c3coc4ccccc4c3=O)C(=N)N12`: the IC50 is 44.1 µM.

With `C=CCn1c(C)cc(C(=O)CSc2nnc(NCc3ccccc3)s2)c1C`, the IC50 is > 100 µM (inactive).

As to `Nc1nc2sc3c(c2c(=O)s1)CCCC3`, the IC50 is > 100 µM (inactive).

With `O=C(ONC1=NCCCCC1)c1ccc(Cl)cc1`, the IC50 is 6.15 µM.

As for `c1ccc(-c2ccc(C(c3ccccc3)n3ccnc3)cc2)cc1` (centres undefined), the IC50 is 1.67 µM.

For `c1ccc(-c2nc(-n3ccnc3)nc(-n3ccnc3)n2)cc1`, the IC50 is 34.3 µM.

As to `C=CCn1c2ccccc2c2nnc(SCN3C(=O)c4ccccc4C3=O)nc21`, the IC50 was > 100 µM (inactive).

Usually IC50 stands for the concentration needed to halve the response being measured.
